The values that follow are results of earlier work, collected in US20250152507A1, “SUBLINGUAL COMPOSITIONS FOR ERECTILE DYSFUNCTION” (Woody's Medical LLC, priority 2023, published 2025).

The data set has as its system men with mild ED. To be noted: reported in C. McMahon et al., BMJ 2006.

For `CN1CCc2cccc3c2[C@H]1Cc1ccc(O)c(O)c1-3` [Apomorphine, apomorphine], the “effect in men with mild ED” value is on record as “only a small effect”.
